Results reported in ChEMBL document CHEMBL3397033, “Bioactive benzofuran derivatives: moracins A-Z in medicinal chemistry” (Eur J Med Chem, 2015).
In brackets after ≈: the same amount, converted by molar mass.

Key:
[1] = tested on: Escherichia coli; test: Antimicrobial activity against Escherichia coli; format: functional
[2] = tested on: Klebsiella pneumoniae; test: Antimicrobial activity against Klebsiella pneumoniae; format: functional
[3] = tested on: Pseudomonas aeruginosa; test: Antimicrobial activity against Pseudomonas aeruginosa; format: functional
[4] = tested on: Citrobacter freundii; test: Antimicrobial activity against Citrobacter freundii by liquid microdilution assay; format: functional
[5] = tested on: Escherichia coli; test: Antimicrobial activity against Escherichia coli by liquid microdilution assay; format: functional
[6] = tested on: Shigella dysenteriae; test: Antimicrobial activity against Shigella dysenteriae by liquid microdilution assay; format: functional
[7] = tested on: Pseudomonas aeruginosa; test: Antimicrobial activity against Pseudomonas aeruginosa by liquid microdilution assay; format: functional
[8] = tested on: Klebsiella pneumoniae; test: Antimicrobial activity against Klebsiella pneumoniae by liquid microdilution assay; format: functional
[9] = tested on: Salmonella typhi; test: Antimicrobial activity against Salmonella typhi by liquid microdilution assay; format: functional, Salmonella enterica subsp. enterica serovar Typhi; conditions: Salmonella enterica
[10] = tested on: Bacillus cereus; test: Antimicrobial activity against Bacillus cereus by liquid microdilution assay; format: functional
[11] = tested on: Staphylococcus aureus; test: Antimicrobial activity against Staphylococcus aureus by liquid microdilution assay; format: functional
[12] = tested on: Enterococcus faecalis; test: Antimicrobial activity against Streptococcus faecalis by liquid microdilution assay; format: functional
[13] = tested on: Candida albicans; test: Antimicrobial activity against Candida albicans by liquid microdilution assay; format: functional
[14] = tested on: Microsporum audouinii; test: Antimicrobial activity against Microsporum audouinii by liquid microdilution assay; format: functional
[15] = tested on: Citrobacter freundii; test: Microbicidal activity against Citrobacter freundii by liquid microdilution assay; format: functional
[16] = tested on: Escherichia coli; test: Microbicidal activity against Escherichia coli by liquid microdilution assay; format: functional
[17] = tested on: Shigella dysenteriae; test: Microbicidal activity against Shigella dysenteriae by liquid microdilution assay; format: functional
[18] = tested on: Pseudomonas aeruginosa; test: Microbicidal activity against Pseudomonas aeruginosa by liquid microdilution assay; format: functional
[19] = tested on: Klebsiella pneumoniae; test: Microbicidal activity against Klebsiella pneumoniae by liquid microdilution assay; format: functional
[20] = tested on: Salmonella typhi; test: Microbicidal activity against Salmonella typhi by liquid microdilution assay; format: functional, Salmonella enterica subsp. enterica serovar Typhi; conditions: Salmonella enterica
[21] = tested on: Bacillus cereus; test: Microbicidal activity against Bacillus cereus by liquid microdilution assay; format: functional
[22] = tested on: Staphylococcus aureus; test: Microbicidal activity against Staphylococcus aureus by liquid microdilution assay; format: functional
[23] = tested on: Enterococcus faecalis; test: Microbicidal activity against Streptococcus faecalis by liquid microdilution assay; format: functional
[24] = tested on: Candida albicans; test: Microbicidal activity against Candida albicans by liquid microdilution assay; format: functional
[25] = tested on: Microsporum audouinii; test: Microbicidal activity against Microsporum audouinii by liquid microdilution assay; format: functional
[26] = Antioxidant activity assessed as DPPH radical scavenging activity measured as discoloration at 12.5 ug/ml; format: physicochemical
[27] = Antioxidant activity assessed as DPPH radical scavenging activity measured as discoloration at 25 ug/ml; format: physicochemical
[28] = Antioxidant activity assessed as DPPH radical scavenging activity measured as discoloration at 50 ug/ml; format: physicochemical
[29] = Antioxidant activity assessed as DPPH radical scavenging activity measured as discoloration at 100 ug/ml; format: physicochemical
[30] = Antioxidant activity assessed as DPPH radical scavenging activity; format: physicochemical
[31] = tested on: A549; test: Cytotoxicity against human A549 cells after 96 hrs by MTT assay; format: functional, cell-based; conditions: A549, 96 h
[32] = Cytotoxicity against human Bel7402 cells after 96 hrs by MTT assay; format: functional, cell-based; conditions: Bel-7402, 96 h
[33] = Cytotoxicity against human BGC823 cells after 96 hrs by MTT assay; format: functional, cell-based; conditions: BGC-823, 96 h
[34] = Cytotoxicity against human HCT8 cells after 96 hrs by MTT assay; format: functional, cell-based; conditions: HCT-8, 96 h
[35] = tested on: A2780; test: Cytotoxicity against human A2780 cells after 96 hrs by MTT assay; format: functional, cell-based; conditions: A2780, 96 h
[36] = tested on: Staphylococcus aureus; test: Antimicrobial activity against methicillin-sensitive Staphylococcus aureus; format: functional
[37] = tested on: Staphylococcus aureus; test: Antimicrobial activity against methicillin-resistant Staphylococcus aureus; format: functional
[38] = tested on: Micrococcus luteus; test: Antimicrobial activity against Micrococcus luteus; format: functional
[39] = tested on: Bacillus subtilis; test: Antimicrobial activity against Bacillus subtilis; format: functional
[40] = Cytotoxicity against human Hep3B cells assessed as cell viability after 24 hrs by MTT assay; format: cell-based, Hep 3B2
[41] = molecular target: Tyrosinase (Agaricus bisporus, UniProt O42713); test: Inhibition of mushroom tyrosinase
Sequence of Tyrosinase (O42713 whole entry): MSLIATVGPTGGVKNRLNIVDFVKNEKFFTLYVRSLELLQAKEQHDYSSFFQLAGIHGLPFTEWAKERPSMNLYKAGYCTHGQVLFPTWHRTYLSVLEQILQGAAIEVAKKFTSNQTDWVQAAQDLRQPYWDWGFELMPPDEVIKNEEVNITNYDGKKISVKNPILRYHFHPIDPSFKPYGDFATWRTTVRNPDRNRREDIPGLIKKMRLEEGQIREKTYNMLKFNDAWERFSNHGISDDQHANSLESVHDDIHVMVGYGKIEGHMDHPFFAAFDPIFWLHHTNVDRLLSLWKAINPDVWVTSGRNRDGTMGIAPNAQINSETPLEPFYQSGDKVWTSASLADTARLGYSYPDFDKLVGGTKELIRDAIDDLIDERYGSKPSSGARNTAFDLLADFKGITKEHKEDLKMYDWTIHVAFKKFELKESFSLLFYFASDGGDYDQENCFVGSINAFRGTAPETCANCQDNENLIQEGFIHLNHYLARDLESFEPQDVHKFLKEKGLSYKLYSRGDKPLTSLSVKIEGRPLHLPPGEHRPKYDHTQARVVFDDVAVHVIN

[42] = tested on: RAW264.7; test: Antiinflammatory activity against mouse RAW264.7 cells assessed as reduction of IFNgamma-induced NO production; format: functional, cell-based
[43] = tested on: RAW264.7; test: Antiinflammatory activity against mouse RAW264.7 cells assessed as reduction of LPS-induced NO production; format: functional, cell-based
[44] = Antifungal activity against Fusarium roseum; format: functional
[45] = Antifungal activity against Fusarium lateritium f. sp. mori; format: functional
[46] = Antifungal activity against Fusarium solani f. sp. mori; format: functional
[47] = Antifungal activity against Diaporthe nomurai; format: functional
[48] = Antifungal activity against Stigmina mori; format: functional
[49] = tested on: Rosellinia necatrix; test: Antifungal activity against Rosellinia necatrix; format: functional
[50] = Antifungal activity against Cochliobolus miyabeanus; format: functional; conditions: Bipolaris oryzae

With `COc1cc(OC)c2cc(-c3cc(O)cc(O)c3)oc2c1` the MIC [1] was > 100 µg/mL, the MIC [2] was > 100 µg/mL and the MIC [3] was > 100 µg/mL.

In the case of `COc1c(O)cc2oc(-c3cc(O)cc(O)c3)cc2c1CC=C(C)C`, the MIC [1] is reported as > 100 µg/mL, the MIC [2] is reported as > 100 µg/mL and the MIC [3] is reported as > 100 µg/mL. For the same compound, the MIC [4] was 156 µg/mL (≈ 458 µM), the MIC [5] was 5 µg/mL (≈ 14.7 µM) and the MIC [6] was 5 µg/mL (≈ 14.7 µM). It also gave an MIC [7] of 5 µg/mL (≈ 14.7 µM), an MIC [8] of 39 µg/mL (≈ 115 µM) and an MIC [9] of 5 µg/mL (≈ 14.7 µM). The MIC [10] was 5 µg/mL (≈ 14.7 µM), the MIC [11] was 10 µg/mL (≈ 29.4 µM) and the MIC [12] was 10 µg/mL (≈ 29.4 µM). For the same compound, the MIC [13] was 10 µg/mL (≈ 29.4 µM), the MIC [14] was 39 µg/mL (≈ 115 µM) and the MBC [15] was 312 µg/mL (≈ 917 µM). The MBC [16] was 10 µg/mL (≈ 29.4 µM), the MBC [17] was 10 µg/mL (≈ 29.4 µM) and the MBC [18] was 20 µg/mL (≈ 58.8 µM). For the same compound, the MBC [19] was 78 µg/mL (≈ 229 µM), the MBC [20] was 20 µg/mL (≈ 58.8 µM) and the MBC [21] was 39 µg/mL (≈ 115 µM). It also gave an MBC [22] of 39 µg/mL (≈ 115 µM), an MBC [23] of 39 µg/mL (≈ 115 µM) and an MFC [24] of 20 µg/mL (≈ 58.8 µM). The MFC [25] was 78 µg/mL (≈ 229 µM), the Activity [26] was 61.58% and the Activity [27] was 65.63%. The Activity [28] was 71.72%, the Activity [29] was 83.04% and the EC50 [30] was 4.12 µg/mL (≈ 12.1 µM).

For `O=Cc1cc2cc(-c3cc(O)cc(O)c3)oc2cc1O`, the MIC [1] was > 100 µg/mL, the MIC [2] was > 100 µg/mL and the MIC [3] was > 100 µg/mL. For the same compound, the IC50 [31] was > 10 µg/mL, the IC50 [32] was 6.8 µg/mL (≈ 25.2 µM) and the IC50 [33] was 7.6 µg/mL (≈ 28.1 µM). It also gave an IC50 [34] of 6.3 µg/mL (≈ 23.3 µM) and an IC50 [35] of 6.9 µg/mL (≈ 25.5 µM).

In the case of `Oc1cc(O)cc(-c2cc3cc4ccoc4cc3o2)c1`, the MIC [1] is reported as > 100 µg/mL, the MIC [2] is reported as > 100 µg/mL and the MIC [3] is reported as > 100 µg/mL. The IC50 [31] was 7.3 µg/mL (≈ 27.4 µM), the IC50 [32] was 5.9 µg/mL (≈ 22.2 µM) and the IC50 [33] was 3.8 µg/mL (≈ 14.3 µM). It also gave an IC50 [34] of 6.4 µg/mL (≈ 24 µM) and an IC50 [35] of 5.9 µg/mL (≈ 22.2 µM).

With `CC1(C)Oc2cc3oc(-c4cc(O)cc(O)c4)cc3cc2CC1O` (stereo not drawn) [(+/-)-MORACIN P] the MIC [36] was 50 µg/mL (≈ 153 µM), the MIC [37] was 100 µg/mL (≈ 306 µM) and the MIC [38] was 100 µg/mL (≈ 306 µM). For the same compound, the MIC [39] was 100 µg/mL (≈ 306 µM), the MIC [1] was > 100 µg/mL and the MIC [2] was > 100 µg/mL. For the same compound, the MIC [3] was > 100 µg/mL, the IC50 [40] was > 30 µM and the IC50 [41] was 2.9 µM. It also gave an IC50 [42] of 19.3 µM and an IC50 [43] of 19.3 µM.

With `COc1cc2cc(-c3cc(O)cc(O)c3)oc2cc1OC` the MIC [1] was > 100 µg/mL, the MIC [2] was > 100 µg/mL and the MIC [3] was > 100 µg/mL. It also gave an MIC [44] of 50 µg/mL (≈ 175 µM), an MIC [45] of 200 µg/mL (≈ 699 µM) and an MIC [46] of 1000 µg/mL (≈ 3490 µM). For the same compound, the MIC [47] was 1000 µg/mL (≈ 3490 µM), the MIC [48] was 50 µg/mL (≈ 175 µM) and the MIC [49] was 50 µg/mL (≈ 175 µM). The MIC [50] was 100 µg/mL (≈ 349 µM).

In the case of `COc1cc2oc(-c3cc(O)cc(O)c3)cc2cc1O`, the MIC [1] is reported as > 100 µg/mL, the MIC [2] is reported as > 100 µg/mL and the MIC [3] is reported as > 100 µg/mL.

With `COc1cc(O)cc(-c2cc3ccc(O)cc3o2)c1CC=C(C)C` [MORACIN I] the MIC [1] was > 100 µg/mL, the MIC [2] was > 100 µg/mL and the MIC [3] was > 100 µg/mL.

With `CC1=CCc2c(c(O)cc3cc(-c4cc(O)cc(O)c4)oc23)OC1` the MIC [1] was > 100 µg/mL, the MIC [2] was > 100 µg/mL and the MIC [3] was > 100 µg/mL.

For `COc1cc2c(c3oc(-c4cc(O)cc(O)c4)cc13)CC=C(C)CO2`, the MIC [1] was > 100 µg/mL, the MIC [2] was > 100 µg/mL and the MIC [3] was > 100 µg/mL. The MIC [44] was 15 µg/mL (≈ 44.3 µM), the MIC [45] was 100 µg/mL (≈ 296 µM) and the MIC [46] was 1000 µg/mL (≈ 2960 µM). For the same compound, the MIC [47] was 50 µg/mL (≈ 148 µM), the MIC [48] was 50 µg/mL (≈ 148 µM) and the MIC [49] was 15 µg/mL (≈ 44.3 µM). The MIC [50] was 50 µg/mL (≈ 148 µM).

In the case of `COc1cc2oc(-c3cc(O)cc(O)c3)cc2cc1CCC(C)(C)O`, the MIC [1] is reported as > 100 µg/mL, the MIC [2] is reported as > 100 µg/mL and the MIC [3] is reported as > 100 µg/mL.
